Experimental data taken from ChEMBL document CHEMBL4804284.
The source made the active and inactive calls. No cut-off for these calls is given here.

Experiments:
[1] = target: Death-associated protein kinase 2 (Homo sapiens) (UniProt Q9UIK4); experiment: Inhibition of DNA-tagged human DAPK2 assessed as percent of control at 50000 nM by qPCR analysis relative to control; set-up: scale not given: the % may be the effect or the level left
[2] = target: Calcium/calmodulin-dependent protein kinase kinase 2 (Homo sapiens) (UniProt Q96RR4); experiment: Inhibition of DNA-tagged human CAMKK2 assessed as percent of control at 50000 nM by qPCR analysis relative to control; set-up: scale not given: the % may be the effect or the level left
[3] = target: Tyrosine-protein kinase receptor TYRO3 (Homo sapiens) (UniProt Q06418); experiment: Inhibition of DNA-tagged human TYRO3 assessed as percent of control at 50000 nM by qPCR analysis relative to control; set-up: scale not given: the % may be the effect or the level left
[4] = test system: Tyrosine-protein kinase ABL1 (Homo sapiens), P00519 [T315I]; experiment: Inhibition of DNA-tagged phosphorylated human ABL1 T315I mutant assessed as percent of control at 50000 nM by qPCR analysis relative to control; set-up: scale not given: the % may be the effect or the level left
[5] = target: Serine/threonine-protein kinase RIO3 (Homo sapiens) (UniProt O14730); experiment: Inhibition of DNA-tagged human RIOK3 assessed as percent of control at 50000 nM by qPCR analysis relative to control; set-up: scale not given: the % may be the effect or the level left
[6] = test system: Tyrosine-protein kinase ABL1 (Homo sapiens), P00519 [M351T]; experiment: Inhibition of DNA-tagged phosphorylated human ABL1 M351T mutant assessed as percent of control at 50000 nM by qPCR analysis relative to control; set-up: scale not given: the % may be the effect or the level left
[7] = target: Ankyrin repeat and protein kinase domain-containing protein 1 (Homo sapiens) (UniProt Q8NFD2); experiment: Inhibition of DNA-tagged human ANKK1 assessed as percent of control at 50000 nM by qPCR analysis relative to control; set-up: scale not given: the % may be the effect or the level left
OCI-AML-3 = experiment: Cytotoxicity against human OCI-AML-3 cells at 0.1-100 uM assessed as decrease in cell viability relative to control; format: functional, cell-based
[8] = target: Serine/threonine-protein kinase Nek1 (Homo sapiens) (UniProt Q96PY6); experiment: Inhibition of DNA-tagged human NEK1 assessed as percent of control at 50000 nM by qPCR analysis relative to control; set-up: scale not given: the % may be the effect or the level left
[9] = target: Dual specificity tyrosine-phosphorylation-regulated kinase 1B (Homo sapiens) (UniProt Q9Y463); experiment: Inhibition of DNA-tagged human DYRK1B assessed as percent of control at 50000 nM by qPCR analysis relative to control; set-up: scale not given: the % may be the effect or the level left
[10] = target: Serine/threonine-protein kinase N1 (Homo sapiens) (UniProt Q16512); experiment: Inhibition of DNA-tagged human PKN1 assessed as percent of control at 50000 nM by qPCR analysis relative to control; set-up: scale not given: the % may be the effect or the level left
[11] = target: Cyclin-G-associated kinase (Homo sapiens) (UniProt O14976); experiment: Inhibition of DNA-tagged human GAK assessed as percent of control at 50000 nM by qPCR analysis relative to control; set-up: scale not given: the % may be the effect or the level left
[12] = target: Ribosomal protein S6 kinase beta-1 (Homo sapiens) (UniProt P23443); experiment: Inhibition of DNA-tagged human S6K1 assessed as percent of control at 50000 nM by qPCR analysis relative to control; set-up: scale not given: the % may be the effect or the level left
[13] = target: Ephrin type-B receptor 2 (Homo sapiens) (UniProt P29323); experiment: Inhibition of DNA-tagged human EPHB2 assessed as percent of control at 50000 nM by qPCR analysis relative to control; set-up: scale not given: the % may be the effect or the level left
[14] = target: Tyrosine-protein kinase Srms (Homo sapiens) (UniProt Q9H3Y6); experiment: Inhibition of DNA-tagged human SRMS assessed as percent of control at 50000 nM by qPCR analysis relative to control; set-up: scale not given: the % may be the effect or the level left
[15] = target: Mitogen-activated protein kinase 7 (Homo sapiens) (UniProt Q13164); experiment: Inhibition of DNA-tagged human ERK5 assessed as percent of control at 50000 nM by qPCR analysis relative to control; set-up: scale not given: the % may be the effect or the level left
[16] = target: Platelet-derived growth factor receptor alpha (Homo sapiens) (UniProt P16234); experiment: Inhibition of DNA-tagged human PDGFRA assessed as percent of control at 50000 nM by qPCR analysis relative to control; set-up: scale not given: the % may be the effect or the level left
[17] = target: Serine/threonine-protein kinase NLK (Homo sapiens) (UniProt Q9UBE8); experiment: Inhibition of DNA-tagged human NLK assessed as percent of control at 50000 nM by qPCR analysis relative to control; set-up: scale not given: the % may be the effect or the level left
[18] = target: Serine/threonine-protein kinase 25 (Homo sapiens) (UniProt O00506); experiment: Inhibition of DNA-tagged human YSK1 assessed as percent of control at 50000 nM by qPCR analysis relative to control; set-up: scale not given: the % may be the effect or the level left
MV4-11 = experiment: Cytotoxicity against human MV4-11 cells at 0.1-100 uM assessed as decrease in cell viability relative to control; format: functional, cell-based
[19] = test system: Tyrosine-protein kinase ABL1 (Homo sapiens), P00519 [T315I]; experiment: Inhibition of DNA-tagged non-phosphorylated human ABL1 T315I mutant assessed as percent of control at 50000 nM by qPCR analysis relative to control; set-up: scale not given: the % may be the effect or the level left
[20] = target: Ephrin type-A receptor 5 (Homo sapiens) (UniProt P54756); experiment: Inhibition of DNA-tagged human EPHA5 assessed as percent of control at 50000 nM by qPCR analysis relative to control; set-up: scale not given: the % may be the effect or the level left
[21] = target: Casein kinase I isoform alpha (Homo sapiens) (UniProt P48729); experiment: Inhibition of DNA-tagged human CSNK1A1 assessed as percent of control at 50000 nM by qPCR analysis relative to control; set-up: scale not given: the % may be the effect or the level left
[22] = target: Casein kinase I isoform gamma-1 (Homo sapiens) (UniProt Q9HCP0); experiment: Inhibition of DNA-tagged human CSNK1G1 assessed as percent of control at 50000 nM by qPCR analysis relative to control; set-up: scale not given: the % may be the effect or the level left
[23] = target: Cyclin-dependent kinase 11A (Homo sapiens) (UniProt Q9UQ88); experiment: Inhibition of DNA-tagged human CDC2L2 assessed as percent of control at 50000 nM by qPCR analysis relative to control; set-up: scale not given: the % may be the effect or the level left
[24] = test system: Mast/stem cell growth factor receptor Kit (Homo sapiens), P10721 [D816H]; experiment: Inhibition of DNA-tagged human KIT D816H mutant assessed as percent of control at 50000 nM by qPCR analysis relative to control; set-up: scale not given: the % may be the effect or the level left
[25] = target: Tyrosine-protein kinase JAK1 (Homo sapiens) (UniProt P23458); experiment: Inhibition of DNA-tagged human JAK1 JH2 pseudokinase domain assessed as percent of control at 50000 nM by qPCR analysis relative to control; set-up: scale not given: the % may be the effect or the level left
[26] = target: Atypical kinase COQ8A, mitochondrial (Homo sapiens) (UniProt Q8NI60); experiment: Inhibition of DNA-tagged human ADCK3 assessed as percent of control at 50000 nM by qPCR analysis relative to control; set-up: scale not given: the % may be the effect or the level left
[27] = target: 5'-AMP-activated protein kinase catalytic subunit alpha-2 (Homo sapiens) (UniProt P54646); experiment: Inhibition of DNA-tagged human AMPK-alpha2 assessed as percent of control at 50000 nM by qPCR analysis relative to control; set-up: scale not given: the % may be the effect or the level left
[28] = target: Cyclin-dependent kinase-like 3 (Homo sapiens) (UniProt Q8IVW4); experiment: Inhibition of DNA-tagged human CDKL3 assessed as percent of control at 50000 nM by qPCR analysis relative to control; set-up: scale not given: the % may be the effect or the level left
Sequence of Cyclin-dependent kinase-like 3 (Homo sapiens) (Q8IVW4 whole entry, looked up): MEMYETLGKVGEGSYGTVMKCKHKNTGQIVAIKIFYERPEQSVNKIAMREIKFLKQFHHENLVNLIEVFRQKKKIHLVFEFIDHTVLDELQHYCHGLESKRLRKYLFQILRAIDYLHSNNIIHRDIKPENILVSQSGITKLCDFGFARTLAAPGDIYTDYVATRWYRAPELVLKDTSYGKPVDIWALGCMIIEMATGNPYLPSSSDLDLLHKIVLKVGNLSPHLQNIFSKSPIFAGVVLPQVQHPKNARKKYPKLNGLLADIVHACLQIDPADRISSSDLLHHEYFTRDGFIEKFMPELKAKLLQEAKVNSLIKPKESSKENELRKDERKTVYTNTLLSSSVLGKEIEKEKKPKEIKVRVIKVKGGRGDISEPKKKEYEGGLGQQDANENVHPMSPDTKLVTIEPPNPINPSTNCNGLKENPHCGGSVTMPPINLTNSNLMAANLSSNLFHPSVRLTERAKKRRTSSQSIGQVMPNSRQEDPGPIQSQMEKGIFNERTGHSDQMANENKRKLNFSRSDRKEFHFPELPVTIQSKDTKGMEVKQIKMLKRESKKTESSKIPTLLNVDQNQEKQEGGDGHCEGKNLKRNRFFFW

Sequence of Serine/threonine-protein kinase 25 (Homo sapiens) (O00506 whole entry, looked up): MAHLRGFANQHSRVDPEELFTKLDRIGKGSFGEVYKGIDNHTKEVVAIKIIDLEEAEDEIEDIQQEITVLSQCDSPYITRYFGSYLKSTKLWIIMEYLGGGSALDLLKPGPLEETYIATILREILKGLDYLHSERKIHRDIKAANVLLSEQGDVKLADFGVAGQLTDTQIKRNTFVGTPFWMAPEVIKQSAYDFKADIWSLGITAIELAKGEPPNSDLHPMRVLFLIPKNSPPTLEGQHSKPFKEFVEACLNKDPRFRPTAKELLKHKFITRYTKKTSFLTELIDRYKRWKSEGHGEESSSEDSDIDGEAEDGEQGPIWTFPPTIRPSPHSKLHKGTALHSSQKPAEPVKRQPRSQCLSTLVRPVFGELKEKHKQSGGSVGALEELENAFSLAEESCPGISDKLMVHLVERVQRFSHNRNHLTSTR
Sequence of Tyrosine-protein kinase JAK1 (Homo sapiens) (P23458 whole entry, the tested form may be a part): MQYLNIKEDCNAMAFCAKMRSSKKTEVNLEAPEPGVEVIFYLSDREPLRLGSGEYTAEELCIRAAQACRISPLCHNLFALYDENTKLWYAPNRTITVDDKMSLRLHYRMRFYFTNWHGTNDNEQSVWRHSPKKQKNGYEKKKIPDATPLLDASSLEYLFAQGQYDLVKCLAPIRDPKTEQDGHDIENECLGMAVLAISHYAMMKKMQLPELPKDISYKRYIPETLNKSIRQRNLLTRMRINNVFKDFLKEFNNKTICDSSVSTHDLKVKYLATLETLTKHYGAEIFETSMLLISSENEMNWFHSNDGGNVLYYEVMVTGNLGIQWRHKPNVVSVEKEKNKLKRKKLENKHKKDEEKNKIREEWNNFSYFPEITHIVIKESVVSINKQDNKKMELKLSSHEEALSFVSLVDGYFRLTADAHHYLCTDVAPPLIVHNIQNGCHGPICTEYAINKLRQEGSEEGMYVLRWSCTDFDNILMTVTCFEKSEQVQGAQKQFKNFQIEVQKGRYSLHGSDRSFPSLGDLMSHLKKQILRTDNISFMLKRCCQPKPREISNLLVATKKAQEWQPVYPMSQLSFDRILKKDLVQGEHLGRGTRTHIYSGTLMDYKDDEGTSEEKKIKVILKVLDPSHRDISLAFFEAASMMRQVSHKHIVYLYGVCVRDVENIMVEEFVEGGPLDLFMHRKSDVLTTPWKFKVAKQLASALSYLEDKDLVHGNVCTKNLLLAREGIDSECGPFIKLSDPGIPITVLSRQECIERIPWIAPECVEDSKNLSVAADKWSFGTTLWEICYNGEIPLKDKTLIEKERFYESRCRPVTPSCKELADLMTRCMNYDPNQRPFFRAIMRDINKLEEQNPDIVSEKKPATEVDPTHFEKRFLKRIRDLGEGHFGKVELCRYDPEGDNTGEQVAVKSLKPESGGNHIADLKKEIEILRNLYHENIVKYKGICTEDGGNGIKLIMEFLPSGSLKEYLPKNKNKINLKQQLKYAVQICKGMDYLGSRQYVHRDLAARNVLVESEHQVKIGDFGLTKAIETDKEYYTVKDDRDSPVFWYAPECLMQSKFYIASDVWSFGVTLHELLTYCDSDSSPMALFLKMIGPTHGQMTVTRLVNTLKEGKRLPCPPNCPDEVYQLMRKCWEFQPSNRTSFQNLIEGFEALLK
Sequence of Tyrosine-protein kinase receptor TYRO3 (Homo sapiens) (Q06418 whole entry): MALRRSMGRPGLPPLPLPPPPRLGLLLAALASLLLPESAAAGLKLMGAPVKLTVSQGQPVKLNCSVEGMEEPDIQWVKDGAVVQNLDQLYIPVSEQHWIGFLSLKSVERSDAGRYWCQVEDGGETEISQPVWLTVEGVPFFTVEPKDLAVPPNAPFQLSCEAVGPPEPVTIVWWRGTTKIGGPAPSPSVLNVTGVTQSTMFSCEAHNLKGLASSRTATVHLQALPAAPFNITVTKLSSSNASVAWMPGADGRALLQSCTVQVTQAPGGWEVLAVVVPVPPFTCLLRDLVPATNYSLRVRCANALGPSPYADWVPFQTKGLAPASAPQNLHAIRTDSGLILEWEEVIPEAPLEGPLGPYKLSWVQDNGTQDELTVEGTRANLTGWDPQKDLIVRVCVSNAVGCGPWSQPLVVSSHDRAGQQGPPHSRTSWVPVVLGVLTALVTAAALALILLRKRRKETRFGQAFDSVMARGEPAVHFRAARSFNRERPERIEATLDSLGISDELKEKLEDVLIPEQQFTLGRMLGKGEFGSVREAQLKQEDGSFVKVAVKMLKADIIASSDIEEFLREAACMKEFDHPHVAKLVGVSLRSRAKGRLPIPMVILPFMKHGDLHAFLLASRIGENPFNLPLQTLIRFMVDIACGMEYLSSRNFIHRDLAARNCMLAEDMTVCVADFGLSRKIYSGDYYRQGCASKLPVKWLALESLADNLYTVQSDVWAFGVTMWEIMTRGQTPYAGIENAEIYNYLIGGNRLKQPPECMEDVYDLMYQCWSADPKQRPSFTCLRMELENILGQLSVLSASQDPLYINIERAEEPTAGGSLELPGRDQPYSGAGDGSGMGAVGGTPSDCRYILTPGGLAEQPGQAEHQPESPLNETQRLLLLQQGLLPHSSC
Sequence of Dual specificity tyrosine-phosphorylation-regulated kinase 1B (Homo sapiens) (Q9Y463 whole entry, looked up): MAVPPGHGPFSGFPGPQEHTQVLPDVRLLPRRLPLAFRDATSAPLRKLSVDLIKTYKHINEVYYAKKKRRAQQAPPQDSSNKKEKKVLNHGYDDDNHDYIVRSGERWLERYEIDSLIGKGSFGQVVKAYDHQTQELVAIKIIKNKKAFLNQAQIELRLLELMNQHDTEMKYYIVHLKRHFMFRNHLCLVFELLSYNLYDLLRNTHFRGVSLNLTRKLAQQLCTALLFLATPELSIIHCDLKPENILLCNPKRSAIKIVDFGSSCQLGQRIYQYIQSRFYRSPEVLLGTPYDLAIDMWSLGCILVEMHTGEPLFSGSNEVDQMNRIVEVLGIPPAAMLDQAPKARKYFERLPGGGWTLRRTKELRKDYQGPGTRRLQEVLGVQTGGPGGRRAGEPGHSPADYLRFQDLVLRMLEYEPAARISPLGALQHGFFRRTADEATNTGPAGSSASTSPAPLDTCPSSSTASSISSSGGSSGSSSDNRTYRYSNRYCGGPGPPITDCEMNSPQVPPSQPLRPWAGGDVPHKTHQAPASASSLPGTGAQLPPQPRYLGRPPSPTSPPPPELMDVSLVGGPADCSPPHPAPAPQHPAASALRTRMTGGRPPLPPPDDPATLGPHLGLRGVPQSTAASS
Sequence of Casein kinase I isoform alpha (Homo sapiens) (P48729 2-337 limits assumed): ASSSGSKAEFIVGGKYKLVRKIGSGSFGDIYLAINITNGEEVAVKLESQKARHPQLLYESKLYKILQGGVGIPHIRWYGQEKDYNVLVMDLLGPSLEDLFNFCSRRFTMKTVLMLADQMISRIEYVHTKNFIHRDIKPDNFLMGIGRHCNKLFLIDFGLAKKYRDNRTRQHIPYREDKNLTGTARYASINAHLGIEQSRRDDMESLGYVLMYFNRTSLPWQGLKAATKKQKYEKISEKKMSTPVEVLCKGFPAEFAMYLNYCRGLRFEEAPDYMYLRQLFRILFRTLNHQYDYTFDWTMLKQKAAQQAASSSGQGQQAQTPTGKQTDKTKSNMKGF
Sequence of Atypical kinase COQ8A, mitochondrial (Homo sapiens) (Q8NI60 163-647 limits assumed): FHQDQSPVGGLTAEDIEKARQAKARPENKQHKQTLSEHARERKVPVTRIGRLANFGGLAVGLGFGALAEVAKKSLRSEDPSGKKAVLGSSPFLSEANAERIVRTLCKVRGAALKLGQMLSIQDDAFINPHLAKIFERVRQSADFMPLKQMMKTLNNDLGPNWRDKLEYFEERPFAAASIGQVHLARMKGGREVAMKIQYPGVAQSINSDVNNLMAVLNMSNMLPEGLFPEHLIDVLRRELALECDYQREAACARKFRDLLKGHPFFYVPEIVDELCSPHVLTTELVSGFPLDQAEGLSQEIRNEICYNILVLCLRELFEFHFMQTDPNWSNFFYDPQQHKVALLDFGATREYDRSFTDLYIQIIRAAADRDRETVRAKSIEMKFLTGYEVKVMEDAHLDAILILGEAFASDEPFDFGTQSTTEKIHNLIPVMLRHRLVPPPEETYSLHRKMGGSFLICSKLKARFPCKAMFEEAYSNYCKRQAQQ
Sequence of Tyrosine-protein kinase Srms (Homo sapiens) (Q9H3Y6 whole entry): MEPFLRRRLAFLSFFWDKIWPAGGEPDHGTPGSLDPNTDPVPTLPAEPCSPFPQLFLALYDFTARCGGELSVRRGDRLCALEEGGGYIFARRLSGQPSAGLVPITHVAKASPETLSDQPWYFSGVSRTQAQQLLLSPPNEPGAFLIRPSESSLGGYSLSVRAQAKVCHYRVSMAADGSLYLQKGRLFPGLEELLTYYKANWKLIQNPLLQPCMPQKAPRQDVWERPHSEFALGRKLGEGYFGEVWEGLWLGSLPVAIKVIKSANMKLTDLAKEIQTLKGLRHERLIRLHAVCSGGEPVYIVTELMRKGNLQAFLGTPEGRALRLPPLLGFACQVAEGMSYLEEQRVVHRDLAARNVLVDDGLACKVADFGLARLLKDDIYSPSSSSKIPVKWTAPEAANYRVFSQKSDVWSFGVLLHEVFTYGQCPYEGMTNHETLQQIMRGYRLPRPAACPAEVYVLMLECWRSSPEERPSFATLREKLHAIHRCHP

## CN1C(=O)/C(=C2/C(=O)Nc3ccccc32)c2ccccc21
[1]
  Activity: 85%
[2]
  Activity: 100%
[3]
  Activity: 77%
[4]
  Activity: 98%
[5]
  Activity: 89%
[6]
  Activity: 73%
[7]
  Activity: 81%
OCI-AML-3
  Activity: Active
[8]
  Activity: 92%
[9]
  Activity: 92%
[10]
  Activity: 100%
[11]
  Activity: 98%
[12]
  Activity: 85%
[13]
  Activity: 100%
[14]
  Activity: 88%
[15]
  Activity: 97%
[16]
  Activity: 85%
[17]
  Activity: 100%
[18]
  Activity: 40%
MV4-11
  Activity: Active
[19]
  Activity: 94%
[20]
  Activity: 96%
[21]
  Activity: 100%
[22]
  Activity: 95%
[23]
  Activity: 100%
[24]
  Activity: 75%
[25]
  Activity: 100%
[26]
  Activity: 74%
[27]
  Activity: 100%
[28]
  Activity: 100%
